Usually MIC stands for the lowest concentration found to suppress growth.

This is an account of results in ChEMBL document CHEMBL1152653, “5-Nitrofuranes and 5-nitrothiophenes with anti-Trypanosoma cruzi activity and ability to accumulate squalene” (Bioorg Med Chem, 2009).

For data set [1], the system named is Trypanosoma cruzi. In words: Antitrypanosomal activity against Trypanosoma cruzi tulahuen 2 after 5 days. It counts as functional. Conditions: tulahuen 2, 120 h, read-out: ID50 (the source's name).
Data set [2] deals with Trypanosoma cruzi. In words: Increase in squalene biosynthesis in Trypanosoma cruzi tulahuen 2 epimastigotes at ID50 concentration per 8 x 10^6 cells/ml after 120 mins by HPLC analysis (Rvb=0.6 to 2.1 ug/ml). It counts as functional.
Data set [3] has as its system Trypanosoma cruzi. In words: Antitrypanosomal activity against Trypanosoma cruzi CL Brener after 5 days. In kind it is functional. As to conditions: 120 h, read-out: ID50 (the source's name).
The nature of data set [4]: Cytotoxicity against mouse J774 cells after 48 hrs by MTT assay. In kind it is cell-based. As to conditions: read-out: ID50. (In general: Tetrazolium assays rely on reduction of a dye to a coloured formazan, in cell work by metabolically active cells.)
A short description of data set [5]: Selectivity index, ratio of IC50 for mouse J774 cells to ID50 for Trypanosoma cruzi tulahuen 2. In kind it is toxicity, cell-based. Conditions: J774 cells versus Trypanosoma cruzi Tulahuen 2, read-out: Selectivity Index.
A further data set has as its system Candida albicans. The data set is described as follows: Antifungal activity against Candida albicans ATCC 10231 after 48 hrs by broth microdilution technique. As to conditions: ATCC 10231, 48 h. In kind it is functional. (Dilution methods test growth across graded concentrations, often in twofold steps.)
The next data set concerns Candida tropicalis. In words: Antifungal activity against Candida tropicalis C131-2000 after 48 hrs by broth microdilution technique. Conditions: C131-2000, 48 h. It counts as functional.
The next data set has as its system Saccharomyces cerevisiae. The data set is described as follows: Antifungal activity against Saccharomyces cerevisiae ATCC 9763 after 48 hrs by broth microdilution technique. Conditions: ATCC 9763, 48 h. It counts as functional.
A further data set has as its system Cryptococcus neoformans. In words: Antifungal activity against Cryptococcus neoformans ATCC 32264 after 48 hrs by broth microdilution technique. In kind it is functional. Conditions: ATCC 32264, 48 h.
The next data set concerns Aspergillus niger. In words: Antifungal activity against Aspergillus niger ATCC 9029 after 48 hrs by broth microdilution technique. It counts as functional. As to conditions: ATCC 9029, 48 h.
The next data set concerns Aspergillus fumigatus. The data set is described as follows: Antifungal activity against Aspergillus fumigatus ATCC 26934 after 48 hrs by broth microdilution technique. In kind it is functional. As to conditions: ATCC 26934, 48 h.
For the next data set, the system named is Aspergillus flavus. In words: Antifungal activity against Aspergillus flavus ATCC 9170 after 48 hrs by broth microdilution technique. In kind it is functional. Conditions: ATCC 9170, 48 h.
Another data set concerns Nannizzia gypsea. In words: Antifungal activity against Microsporum gypseum C 115 after 48 hrs by broth microdilution technique. It counts as functional. As to conditions: C 115, 48 h.
The next data set deals with Trichophyton rubrum. In words: Antifungal activity against Trichophyton rubrum C113 after 48 hrs by broth microdilution technique. It counts as functional. Conditions: C113, 48 h.
Data set [6] deals with Trichophyton mentagrophytes. The data set is described as follows: Antifungal activity against Trichophyton mentagrophytes ATCC 9972 after 48 hrs by broth microdilution technique. In kind it is functional. As to conditions: ATCC 9972, 48 h.
In data set [7] the test system is Trypanosoma cruzi. The data set is described as follows: Decrease in ergosterol biosynthesis in Trypanosoma cruzi tulahuen 2 epimastigotes at ID50 concentration per 8 x 10^6 cells/ml after 120 mins by HPLC analysis (Rvb=6.8 +/- 0.5 ug/ml). It counts as functional.
Data set [8] concerns Trypanosoma cruzi. The data set is described as follows: Ratio of ID50 for drug to ID50 for nifurtimox against Trypanosoma cruzi tulahuen 2 after 5 days. It counts as functional.

≈ marks a conversion by molar mass, not a printed value.

As to `O=C(/C=C/c1ccco1)N1CCN(C/C=C/c2ccccc2)CC1`, the IC50 with Trypanosoma cruzi [1] is above 25 µM. In addition, the Activity in the data set with Trypanosoma cruzi [2] was 0.6 µg/mL.
Take `O=C(/C=C/c1ccc([N+](=O)[O-])o1)NCCO`: the IC50 in the data set on Trypanosoma cruzi [1] stood at 5 µM. This compound had an Activity with Trypanosoma cruzi [2] of 0.6 µg/mL.
In the case of `C=CCNC(=S)N/N=C/C=C/c1ccc([N+](=O)[O-])o1`, the IC50 in the data set on Trypanosoma cruzi [1] turned out to be 8.2 µM; in the data set on Trypanosoma cruzi [3], 6.4 µM. Besides, the CC50 at 48 h in [4] is 200 µM. In addition, the selectivity ratio in data set [5] is 24.4. Besides, the MIC in the data set on Candida albicans, in the data set on Candida tropicalis, against Saccharomyces cerevisiae, in the data set on Cryptococcus neoformans, against Aspergillus niger and against Aspergillus fumigatus was above 250 µg/mL throughout. The MIC (in the data set on Aspergillus flavus; in the data set with Nannizzia gypsea; in the data set with Trichophyton rubrum; in [6]) was above 250 µg/mL throughout. In addition, the results for the Activity in the data set with Trypanosoma cruzi [2] and in the data set on Trypanosoma cruzi [7] were 15.9 µg/mL and 5.5 µg/mL, respectively.
Regarding `O=C(/C=C/c1ccc([N+](=O)[O-])o1)N1CCN(C/C=C/c2ccccc2)CC1`, the IC50 with Trypanosoma cruzi [1] turned out to be 1 µM. In the data set on Trypanosoma cruzi [8], the Ratio turned out to be 7. The Activity in the data set on Trypanosoma cruzi [2] was determined as 0.6 µg/mL.
For `C[C@@H]1[C@H](O)[C@@H](C)/C=C/C=C/C=C/C=C/C=C/C=C/C=C/[C@H](O[C@@H]2O[C@H](C)[C@@H](O)[C@H](N)[C@@H]2O)C[C@@H]2O[C@](O)(C[C@@H](O)C[C@@H](O)[C@H](O)CC[C@@H](O)C[C@@H](O)CC(=O)O[C@H]1C)C[C@H](O)[C@H]2C(=O)O` [AMPHOTERICIN B], the MIC against Candida albicans was determined as 0.5 µg/mL (≈ 0.541 µM); with Candida tropicalis, 0.5 µg/mL (≈ 0.541 µM); with Saccharomyces cerevisiae, 0.5 µg/mL (≈ 0.541 µM); in the data set on Cryptococcus neoformans, 0.25 µg/mL (≈ 0.271 µM); against Aspergillus niger, 0.125 µg/mL (≈ 0.135 µM); with Aspergillus fumigatus, 0.5 µg/mL (≈ 0.541 µM). For the same compound, the minimal inhibitory concentration (MIC) in the data set with Aspergillus flavus was 0.25 µg/mL (≈ 0.271 µM); against Nannizzia gypsea, 0.05 µg/mL (≈ 0.0541 µM); against Trichophyton rubrum, 0.025 µg/mL (≈ 0.0271 µM); in data set [6] it was 0.025 µg/mL (≈ 0.0271 µM).
For `CC(=O)N1CCN(c2ccc(OCC3COC(Cn4ccnc4)(c4ccc(Cl)cc4Cl)O3)cc2)CC1` (configuration not stated) [KETOCONAZOLE], the CC50 at 48 h in [4] is below 100 µM. Moreover, in data set [5], the selectivity ratio was below 10. The minimal inhibitory concentration (MIC) worked out at 1.56 µg/mL (≈ 2.94 µM) in the data set on Candida albicans; 1.56 µg/mL (≈ 2.94 µM) in the data set on Candida tropicalis; 3.12 µg/mL (≈ 5.87 µM) against Saccharomyces cerevisiae; 0.39 µg/mL (≈ 0.734 µM) in the data set with Cryptococcus neoformans; 0.78 µg/mL (≈ 1.47 µM) in the data set with Aspergillus niger; 0.78 µg/mL (≈ 1.47 µM) against Aspergillus fumigatus. The MIC against Aspergillus flavus was 1.56 µg/mL (≈ 2.94 µM); against Nannizzia gypsea, 0.04 µg/mL (≈ 0.0753 µM); in the data set with Trichophyton rubrum it was 0.01 µg/mL (≈ 0.0188 µM); in [6], 0.025 µg/mL (≈ 0.047 µM).
For the compound `CC1CS(=O)(=O)CCN1/N=C/c1ccc([N+](=O)[O-])o1` (configuration not stated) [NIFURTIMOX], the CC50 at 48 h in data set [4] was determined as 316 µM. Moreover, the selectivity ratio in [5] was 41. This compound yielded an Activity with Trypanosoma cruzi [2] of 0.6 µg/mL.
Turning to `CN(C/C=C/C#CC(C)(C)C)Cc1cccc2ccccc12` [TERBINAFINE], the CC50 at 48 h in data set [4] is 339 µM. Besides, the selectivity ratio in data set [5] is 19.9. In addition, the minimal inhibitory concentration (MIC) worked out at 0.78 µg/mL (≈ 2.68 µM) against Candida albicans; 1.56 µg/mL (≈ 5.35 µM) against Candida tropicalis; 0.5 µg/mL (≈ 1.72 µM) in the data set on Saccharomyces cerevisiae; 0.25 µg/mL (≈ 0.858 µM) with Cryptococcus neoformans; 0.5 µg/mL (≈ 1.72 µM) in the data set on Aspergillus niger; 0.5 µg/mL (≈ 1.72 µM) in the data set on Aspergillus fumigatus. Further, the minimal inhibitory concentration (MIC) against Aspergillus flavus was found to be 0.5 µg/mL (≈ 1.72 µM); in the data set with Nannizzia gypsea, 0.125 µg/mL (≈ 0.429 µM); in the data set on Trichophyton rubrum, 0.075 µg/mL (≈ 0.257 µM); in [6] it was 0.075 µg/mL (≈ 0.257 µM). Further, the Activity with Trypanosoma cruzi [2] worked out at 12 µg/mL; with Trypanosoma cruzi [7], 2.7 µg/mL.
